According to patent publication US6693132B2, “Methods for using alkanoyloxymethyl esters” (Beacon Laboratories, Inc., priority 2000, dated 2004):

Columns and labels:
[1] = test system: PC-3 prostate cancer cells; assay: EDR anti-proliferation assay (3H-thymidine incorporation, soft agar) against PC-3 prostate cancer cells; assay type: cell-based; conditions: Homo sapiens; PC-3 cells in soft agar, five days incubation, 3H-TdR incorporation
Source text: The PC-3 cell line was maintained in RPMI supplemented with 10% fetal calf serum and antibiotics. […] Cells were suspended in 0.12% soft agar in complete medium and plated (2,000 cells per well, as determined by preliminary experiments) in different drug concentrations onto a 0.4% agarose underlayer in 24-well plates. Plating cells on agarose underlayers supports the proliferation only of the transformed cells, ensuring that the growth signal stems from the malignant component of the tumor.
All compounds were dissolved in DMSO to 200× stock solutions. Stock solutions were diluted to 20× working solutions using the tissue culture medium, serially diluted and added to the 24-well plates. […] No significant changes in pH of the culture medium were observed under the above conditions. Diluent control wells contained PC3 cells treated with DMSO, at the dilutions used for appropriate drug treatment. All experimental points were represented by two separate wells (duplicates). Positive controls were determined using at least two wells treated with an extremely high dose of cisplatin, an anti-cancer agent. Four wells containing tumor cells that were not treated with drugs served as negative controls in each experiment.
Cells were incubated with drugs under standard culture conditions for five days. Cultures were pulsed with tritiated thymidine (^3H-TdR, New Life Science Products, Boston, Mass.) at 5 μCi per well for the last 48 hours of the culture period. Cell culture plates were then heated to 90° C. to liquefy the agarose, and cells were harvested onto glass fiber filters, which were then placed into counting vials containing liquid scintillation fluid. The radioactivity trapped on the filters was counted with a Beckman scintillation counter. The fraction of surviving cells was determined by comparing ^3H-TdR incorporation in treated (experimental points) and untreated (negative control) wells. […] IC50 values were determined using the approximated sigmoidal curves and expressed as μM.

[2] = target: histone deacetylase isolated from rat liver; assay: Histone deacetylase inhibition assay with fluorescent substrate MAL, HPLC determination; assay type: biochemical; conditions: 37° C. 90 minutes, IC50 from five dilutions, read-out: HDAC
Procedure: The inhibition of histone deacetylase was determined according to methods generally described by Hoffmann et al., Nucleic Acids Res. 27:2057-8 (1999). The histone deacetylase was isolated from rat liver as previously described by M. Tung. The compounds tested were initially dissolved in either ethanol or in DMSO to provide working stock solutions.
The assay was performed in a final volume of 120 μL total, consisting of 100 μL of 15 μM tris-HCl buffer (pH 7.9) also containing 0.25 μM EDTA, 10 μM NaCl, 10% glycerol, 10 μM mercaptoethanol and the enzyme. The assay was initiated upon the addition of 10 ml of one of the compounds being tested, followed by the addition of the fluorescence-labeled lysine substrate to each assay tube in an ice bath for 15 minutes. The tubes were transferred to a water bath at 37° C. for an additional 90 minutes.
The fluorescent substrate described by Hoffmann was modified to increase the precision and accuracy by the addition of an internal standard for the HPLC determination. The synthetic substrate, MAL is N-(4-methyl-7-coumarinyl)-N-α(tert-butyloxy-carbonyl)-N-Ω-acetyllysineamide.
An initial assay was performed to determine the range of activity of each compound. […] All values are the result of two or more experiments.

| IC50 [1] [µM] | IC50 [2] [µM] | Structure (SMILES) |
| --- | --- | --- |
| 30 | 590 | CCC(=O)OCOC(=O)CC [POMP, propionoyloxymethyl propionate] |
| > 2000 | 4500 | CCCC(=O)O [butyric acid] |
| 0.005 |  | CC(/C=C/C(=O)NO)=C\[C@@H](C)C(=O)c1ccc(N(C)C)cc1 [trichostatin] |
